Data set [1] concerns the target T1, ROCKII (Rattus norvegicus, UniProt Q62868).
T1 construct: purchased Upstate Ltd. (United Kingdom)
Put plainly: ROCKII inhibition at a single concentration of 10 μM (selectivity histogram, Table 3). The data set is classed as biochemical. Particulars: Table 3; compound at 10 micromolar. As to the method:
Compounds of this invention can be evaluated for kinase inhibition activity as solutions in 100% DMSO at a concentration of 10 μM added to GSK3β(h) and to ROCK-II(r) with ATP present at a concentration of 100 μM. Samples of compounds of this invention can be tested at 10 μM.
The data can be presented as relative ROCK kinase inhibition at a reference compound concentration of 3.5 uM and at 35 μM, wherein 0 signifies complete inhibition under the ATP concentration tested (100 μM). ROCK kinase activity is the opposite of ROCK kinase inhibition, and is compared with the GSKB kinase activity.
Experiments were done in duplicate. ATP was present at 100 μM in the assay.
The values were expressed in a percentage of inhibition of each kinase. Experiments were done in duplicate. ATP was present at 100 μM in the assay.
(§1) Percent net neurite outgrowth at 35 micromolar concentrations are presented in Table 3 together with percent Rock inhibition at 10 micromolar for three compounds designated BA-1043, BA-1049, and BA-1050. […] It should be noted that percent Rock activity is equal to 100% minus percent Rock inhibition.

In data set [2] the test system is NG108 cells. Put plainly: Bioassay of neurite outgrowth in NG108 cells on plastic. Format: cell-based. Particulars: compound at 35 micromolar.
Description: as §1

In data set [3] the test system is human plasma proteins. Particulars: equilibrium dialysis 24 h, 37° C. (Equilibrium dialysis compares concentrations on both sides of a semipermeable membrane.)
Description: Plasma or serum protein binding assays using the equilibrium dialysis method are used to determine drug availability. Equilibrium dialysis studies using a 96-well microplate format or using conventional 2-chambered Teflon dialysis cells can be used to determine plasma or serum binding, and LC/MS/MS analysis is used for test compound quantification. The Teflon dialysis cell system is commonly used to determine the time to reach equilibrium, the fraction of a compound bound and unbound to plasma proteins and the effect of concentration on the extent of binding. Test compound quantification is performed by HPLC or LC/MS/MS analysis.
To perform equilibrium dialysis the following procedures can be used. To 0.990 mL of thawed plasma (37° C.), a 10 μL aliquot of the stock solutions is added for test compound concentrations of 35 μM. An appropriate volume of buffer (Dulbecco's phosphate buffered saline, pH 7.4) is spiked with each test compound at a concentration of 35 μM. Duplicate aliquots (130 μL) of each spiked plasma and buffer solution are collected prior to dialysis into labeled 1.5 mL polypropylene tubes and stored frozen at −40° C. […] Equilibrium dialysis is performed in a 96-well Teflon dialysis unit. Each well of the unit consists of two chambers separated by a vertically aligned dialysis membrane (regenerated cellulose) with a molecular weight cut-off of 12-14 KDa. The equilibrium dialysis membranes are first pre-soaked in deionized water for 30 min, then soaked in 20% ethanol for 20 min, followed by rinsing twice with deionized water. The equilibrium dialysis apparatus is assembled according to the manufacturer's directions. One chamber of each well is filled with 150 μL of blank buffer (to prevent membrane dehydration). Aliquots (150 μL) of spiked plasma or spiked buffer are added to the opposing chamber in each well. The top of the plate is sealed with an adhesive sealing film to prevent evaporation and to maintain constant pH during incubation. All dialysis experiments with the test compounds and standards are assessed using duplicate samples. The dialysis apparatus is incubated at 37° C. in an orbital shaker/incubator (Lab-Line Enviro) samples are collected following 24 hours of incubation. Samples containing the test compounds are stored frozen at −70° C. until analysis. Samples (100 μL) containing the radiolabels are added and mixed by vortex. The disintegrations per minute (dpm) in each vial are measured with a liquid scintillation counter. The fraction of each test compound and standard unbound (fu) to human serum proteins is calculated according to the following equation:
[formula] wherein Cbuffer and Cplasma represent the concentration of the compound measured in the buffer and plasma chambers, respectively, following dialysis. The fraction bound (fb) to the plasma proteins is determined as: 1−fu.
For data set [4] the following is noted: patients treated for stroke; cited from earlier work.
The subject of data set [5] is HUVEC cells. Put plainly: HUVEC capillary tube formation on ECMatrix. The data set is classed as cell-based, human. The following applies: 15,000 HUVEC cells on ECMatrix, 6-8 h. The text has this:
HUVEC cells will form capillary tubes when plated on protein substrates composed of proteins found in the extracellular matrix. Typical substrates useful for experiments with HUVEC cells are Matrigel, fibronectin or collagen. Matrigel is composed of several proteins that make up the extracellular matrix. Extracelluar matrix substrates can be plated in tissue culture dishes as 3-dimensional cell culture substrates. Another reagent that can be used as a substrate is ECMatrix™ (Chemicon International, Temecula, Calif.), a reconstituted basement membrane matrix of proteins derived from the Engelbreth Holm-Swarm (EHS) mouse tumor. This substrate gels rapidly at 22-35° C. Thus, ECMatrix™ is thawed overnight on ice or in +4° C. A 96-well plate is pre-chilled, and 100μl of the ECMatrix solution is added to each well. The plate is incubated at 37° C. for at least one hour to allow the matrix solution to solidify. The HUVEC cells are harvested and resuspended in a standard cell growth media supplemented with endothelial cell growth supplements. The presence of serum (0.5-10%) is optional. EGM (endothelial cell growth media) can be used. The HUVEC cells are plated at a density of 5×10^3 to 1×10^4 cells per well onto the surface of the polymerized ECMatrix™, and then incubated overnight in a tissue-culture incubator. Cellular network structures are fully developed by 12 to 18 h, with the first signs apparent after 5-6 h. After 24 h, the cells begin to undergo apoptosis. To study the effect of anti-angiogenic factors, they can be added at the time of cell plating. Optional tissue culture vary depending on the cell type, age, and media growth conditions. The tubes are inspected under an inverted light microscope at 40×-200× magnification. Since there is a lack of contrast of the cellular networks, the cultures can be stained with any of the common cell staining procedures such as Diff-Quick or Wright-Giemsa or crystal-violet. The total capillary tube length measurement method is used to quantify the results. The total length of all the capillary tubes in several (3-10) view-fields is measured by Northern Eclipse software.
Photos are representative of 5 separate experiments.
Tranilast is used as a positive control. For this experiment, 15,000 HUVEC cells were plated on ECMatrix™ and incubated for 6-8 h alone before quantification. Results are presented as mean± SEM for one experiment analyzed in duplicate. […] It is used as a positive control.

Data set [6] deals with HUVEC cells. Put plainly: Endothelial cell migration, Boyden chamber with VEGF. The following applies: 50 μM; 20 h; 10 ng/mL VEGF; fibronectin-coated transwells. Format: cell-based, human.
Description: A common assay uses Boyden or Transwell chambers, a compartmentalized cell cultures system. Cells are plated in the upper compartment of the Transwell chamber, and the ability of a compound under evaluation to block cell migration through, for example the pores of a Fluoroblok membrane, to the bottom compartment is measured. […] Typically, a chemoattractant is added to the bottom well or compartment. In the case of endothelial cells, a useful chemoattractant is vascular endothelial growth factor (VEGF). […] Experiments can be performed in 24-well plates (individual insert or multiwell insert) or in 96-multiwell insert plates with appropriate correction for volume and cell density. […] Following incubation with the cell dye, fluorescence from invaded cells is read in a fluorescence plate reader with bottom reading capabilities at excitation/emission wavelengths of 485/530 nm without further manipulation. Only those labeled cells that have migrated through the pores of the Fluoroblok membrane will be detected.
The data may be expressed as either fluorescent units (FU) or as “fold migration”, i.e., the FU value of the cells migrating through the fibronectin coated insert membrane in response to a chemoattractant with inhibitor relative to the FU value of a control, i.e., without inhibitor. […]
Data set [7] relates to Caco-2 cells. Particulars: Caco-2 monolayer.
Description: After incubation, samples are taken from the apical and basolateral compartment and the concentration of the test compound is determined by LCMS (liquid chromatography/mass spectroscopy).
Stock cultures are sub-cultured every 7 days when cells have reached 80-90% confluency. Studies are conducted with Caco-2 cells, used between passage 21 to 40. Cells are plated on Transwell™ inserts at a density of 1×10^4 cells/well in 24-well culture plates. Cells are incubated at 37° C. under 5% CO2 atmosphere, and media (MEM Earles medium containing 10% FBS, 0.1 mM non-essential amino acids and 1 mM sodium pyruvate) are changed 3 times per week. Cells are used for permeability studies between 20 to 22 days after seeding. On the day of the assay, cell monolayers are washed 3 times. Each wash consists of aspirating liquid from the apical (A) and basolateral (B) sides, and adding 0.5 and 1 mL, respectively, of fresh Dulbecco's phosphate-buffered saline with Mg^2+ and Ca^2+, pH 7.4 (PBS). After the final wash, a volt-ohm-meter is used to determine the trans-epithelial electrical resistance (TEER), a measure of the integrity of the monolayer. Cells are not be used if the TEER values are less than 200 ohms/cm^2. Working solutions of the test compounds are prepared in PBS. […] For each test compound and standard, apical to basolateral (A to B) and basolateral to apical (B to A) transport is measured. The final volume on the basolateral side is 1 mL; the final volume on the apical side is 0.3 mL. The test compound working solution or radiolabeled standard solution is added to the ‘donor’ side. Blank buffer is added to the ‘acceptor’ side. […] The permeability of each compound and control is measured by sampling 200μL of medium from the acceptor compartment at time zero and following 60 minutes of incubation. […] A 3 mL aliquot of liquid scintillant is added to the vials, and disintegrations per minute (dpm) are determined in a liquid scintillation counter. […] The permeability of Lucifer Yellow is measured by sampling 100 μL of medium from the basolateral compartment following 60 minutes of incubation. […]

Each structure is given as a SMILES string.

T1 sequence (Q62868 whole entry): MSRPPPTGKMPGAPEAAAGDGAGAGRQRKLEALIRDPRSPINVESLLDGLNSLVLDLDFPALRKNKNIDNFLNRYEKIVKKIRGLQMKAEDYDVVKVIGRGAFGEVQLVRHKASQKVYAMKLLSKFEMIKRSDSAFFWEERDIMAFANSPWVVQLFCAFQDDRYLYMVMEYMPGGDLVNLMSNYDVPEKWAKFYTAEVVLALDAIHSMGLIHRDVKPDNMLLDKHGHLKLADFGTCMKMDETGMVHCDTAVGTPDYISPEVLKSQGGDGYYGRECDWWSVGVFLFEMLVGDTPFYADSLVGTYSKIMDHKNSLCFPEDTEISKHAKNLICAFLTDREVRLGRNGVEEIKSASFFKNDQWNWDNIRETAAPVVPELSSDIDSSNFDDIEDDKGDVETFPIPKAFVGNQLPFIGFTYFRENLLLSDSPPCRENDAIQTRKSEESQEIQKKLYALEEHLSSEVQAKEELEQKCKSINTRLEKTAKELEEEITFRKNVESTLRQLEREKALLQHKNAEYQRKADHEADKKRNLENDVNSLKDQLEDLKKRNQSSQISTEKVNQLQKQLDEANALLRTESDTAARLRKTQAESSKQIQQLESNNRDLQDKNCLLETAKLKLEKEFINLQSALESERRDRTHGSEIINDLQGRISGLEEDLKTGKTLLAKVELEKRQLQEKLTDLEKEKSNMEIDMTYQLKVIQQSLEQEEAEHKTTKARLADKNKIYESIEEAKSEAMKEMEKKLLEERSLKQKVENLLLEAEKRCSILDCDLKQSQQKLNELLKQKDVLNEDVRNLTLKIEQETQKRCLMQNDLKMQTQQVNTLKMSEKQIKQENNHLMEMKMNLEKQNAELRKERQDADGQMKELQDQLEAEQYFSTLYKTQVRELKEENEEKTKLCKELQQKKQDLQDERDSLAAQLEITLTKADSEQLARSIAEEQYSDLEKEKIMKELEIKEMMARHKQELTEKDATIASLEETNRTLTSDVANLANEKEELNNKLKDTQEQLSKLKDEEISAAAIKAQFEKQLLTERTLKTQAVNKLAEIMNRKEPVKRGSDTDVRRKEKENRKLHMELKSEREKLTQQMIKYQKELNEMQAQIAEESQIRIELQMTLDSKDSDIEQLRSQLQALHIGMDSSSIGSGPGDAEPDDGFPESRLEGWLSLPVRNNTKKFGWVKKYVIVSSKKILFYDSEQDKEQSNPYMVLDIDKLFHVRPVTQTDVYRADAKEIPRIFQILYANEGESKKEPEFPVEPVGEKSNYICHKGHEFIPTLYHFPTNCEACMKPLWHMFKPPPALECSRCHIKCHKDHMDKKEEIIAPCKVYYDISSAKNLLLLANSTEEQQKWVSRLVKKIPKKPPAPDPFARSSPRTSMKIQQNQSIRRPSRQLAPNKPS

In the case of `CCCC(N)C1CCN(S(=O)(=O)c2cccc3cnccc23)CC1.Cl.Cl` (racemic) [BA-1050, (R,S)-N-(5″-isoquinolinesulfonyl)-4-[butan-1′-amino]piperidine dihydrochloride], the “Percent Rock inhibition at 10 micromolar” value in data set [1] came to 79%. In data set [2], the “Percent Net Neurite Outgrowth at 35 micromolar” value is reported as 20.2%.
As for `CC(C)NC[C@H](O)COc1cccc2ccccc12` [(S)-Propranolol, reference compound], in data set [3], the “Bound (%)” value worked out at 91.3% and the “Unbound (%)” value is reported as 8.67%.
For the compound `CN(N)C1CCN(S(=O)(=O)c2cccc3cnccc23)CC1.Cl.Cl` [BA-1043, N-(5′″-isoquinolinesulfonyl)-4-[N′-(1′-methyl)hydrazino]piperidine dihydrochloride], in data set [1], the “Percent Rock inhibition at 10 micromolar” value was 61%. The “Percent Net Neurite Outgrowth at 35 micromolar” value in data set [2] was 15.2%.
`CC1=NN(c2ccccc2)C(=O)C1` [Radicut, 3-methyl-1-phenyl-2-pyrazoline-5-one]: the “adverse effect in clinical use (in words)” value in data set [4] is on record as “kidney toxicity”.
For `COc1ccc(C=CC(=O)Nc2ccccc2C(=O)O)cc1OC` [Tranilast, N-(3′,4′-dimethoxycinnamoyl)anthranilic acid, reference compound], the “relative amount of tube formation” value is recorded as “approximately 35 % relative to control” in data set [5] (10 μg/mL) and “approximately 30 % relative to control” in data set [5] (50 μg/mL). For the same compound, the “migration, % of the amount observed with Ctl+VEGF” value in data set [6] is reported as “approximately 30%”.
Turning to `OC[C@@H](O)[C@@H](O)[C@H](O)[C@H](O)CO` [[^3H]-Mannitol, reference compound], in data set [7], the “B − A/A − B Papp ratio” value is recorded as 0.81.

Values taken from patent publication US7572913B2, “4-substituted piperidine derivatives” (Bioaxone Therapeutique Inc., priority 2004, dated 2009).
